Where two headings read alike, the source gives them in different places.
What was measured:
[1] = system: Haemonchus contortus; test: Haemonchus contortus larvacidal assay (larval development, LD99)
Protocol: a) Haemonchus Contortus Larvacidal Assay:
The effect of compounds on larval development was determined in the assay described by Gill et al., (1995, International Journal of Parasitology 25:463-470). Briefly, in this assay, nematode eggs were applied to the surface of an agar matrix containing the test compound and then allowed to develop through to the L3, infective stage (6 days). The wells for each dilution of every compound (from highest to lowest concentration) were inspected to determine the well number corresponding to the lowest concentration at which development was inhibited in 99% of the nematode larvae present (LD99). Because well numbers correspond to a two-fold serial dilution of each compound, a titre (dilution factor) is generated as 2n^−1, where n is the well number. By dividing the highest concentration tested by the titre an LD99 value can be obtained, representing the concentration required to inhibit development in 99% of the nematode larvae present. The compounds supplied as solid and viscous liquids were dissolved in DMSO. Twelve serial one-half dilutions in DMSO solution were prepared from the stock solution, each of which was then diluted ⅕ with water. Aliquots (10 μl) of each dilution were transferred to the bioassay plates to give a final concentration range of 0.024 to 50 μg/ml.

[2] = system: Ctenocephalides felis
Procedure, shortened: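 Adult cat fleas (3–7 days post-emergence), 15 per flask in ≥4 replicates, exposed to a dried acetone residue at 1.26 μg/cm^2 on a Coatasil-treated glass flask base. Held at 25±1° C, 75±5% humidity; mortality (immobile or unable to right) scored at 8, 24 and/or 48 h.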

[3] = system: Ctenocephalides felis; test: Ctenocephalides felis adulticide assay: C. felis dose response (LC50)
[4] = system: Rhipicephalus sanguineus; test: Rapid screening protocol for topical application on brown dog ticks (% mortality); conditions: data from laboratory 2
Procedure, shortened: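 Mixed-sex unfed adult ticks each received 1 μL test sample in acetone on the abdomen at a single screening dose chosen above the reference LD90 (fipronil 10 μg/tick), with acetone-only controls; 4 replicates of 10 ticks. Held 24 h at 25±1 °C; ticks unresponsive to light touch over 1 min scored dead, pooled as % mortality.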

[5] = system: Rhipicephalus sanguineus; test: Dose response protocol for topical application on brown dog ticks (LD50); conditions: 24 h mortality, probit analysis
Protocol: e) Dose response protocol for topical application on brown dog ticks (Rhipicephalus sanguineus): The test determines the level of insecticidal activity of sample compounds or formulations when applied topically on brown dog ticks. Sample compounds were stored prior to use in a freezer (−5±1° C.), unless otherwise specified.
• Mortality: A tick is defined as dead after it gives no apparent response when touched lightly or gently breathed upon, while observed for 30 seconds. • LD50 (Lethal Dose 50): The dose of a topically applied treatment at which 50% of the dog ticks are killed. • Reference compound: To assess an experimental compound for significant acaricidal activity a single dose level is chosen, which is based upon known results from previous experiments using a commercially available active i.e., a reference compound. The reference compound selected is one in common use, and one that has a similar mode of action against the Brown Dog Tick (i.e., the test species), • Recovery container: A recovery container consists of a 500 ml round plastic container measuring 115 mm diameter and 70 mm height, with a tight fitting lid that has 10 small (˜1 mm) holes inserted for air exchange. A 90 mm diameter piece of filter paper was placed on the bottom of the container and moistened with 1 mL of distilled water.
Adult, mixed sex, Brown Dog Ticks (Rhipicephalus sanguineus) were reared as follows: (i) cultured, (ii) transferred unfed, to a testing laboratory, and (iii) then maintained under controlled conditions (i.e., temp. 18°±2° C., humidity 75±5% RH). The ticks used were selected for vigor prior to testing, i.e., capable of actively walking and responsive to being touched or gently breathed upon.
During the testing, the temperature was maintained at 25±1° C. and the humidity was ambient. Seven dose levels (concentrations) of sample compound, in the form of serial dilutions in acetone, were derived from a pilot study and covered a range that produced very low to very high mortality. Groups of ten ticks were treated topically (on the abdomen) with 1 μL of a single dose level of the sample compound. Each test was replicated four times, i.e., employing a total of 40 ticks per dose level of each sample compound. As a control, ten ticks were treated with solvent only (acetone) for each test. Following the treatment, the ticks were held in recovery containers maintained under appropriate rearing conditions for 24 hours. Mortality resulting from the treatments was recorded at 24 hours. […] Press, London (1971).]

Q: With Cn1ccc(-c2cc(Cl)ccc2NS(=O)(=O)C(F)(F)F)n1 as the compound, how does the melting point read?
A: 196 to 197 °C

Q: For CC(=NNc1ccc(C(F)(F)F)cc1)c1cc(Cl)ccc1NS(=O)(=O)C(F)(F)F [Compound 1, N-[2-[1-(4-trifluoro-methylphenyl)hydrazono]ethyl-4-chlorophenyl]-trifluoromethanesulfonamide], which “H. contortus LD99” value [1] is on record?
A: 3.8 ppm

Q: With CCC(=NNc1ccc(C(F)(F)F)cc1)c1cc(Cl)ccc1NS(=O)(=O)C(F)(F)F [Compound 2] as the compound, how does the “H. contortus LD99” value [1] read?
A: 6 ppm

Q: With CC(=NNc1cccc(Cl)c1Cl)c1cc(Cl)ccc1NS(=O)(=O)C(F)(F)F [Compound 3] as the compound, how does the “H. contortus LD99” value [1] read?
A: 1.5 ppm

Q: Which “H. contortus LD99” value [1] does the source give for CC(=NNc1ccc(Cl)cc1Cl)c1cc(Cl)ccc1NS(=O)(=O)C(F)(F)F [Compound 4] here?
A: 0.63 ppm

Q: Which “H. contortus LD99” value [1] does the source give for CC(=NNc1ccc(Cl)c(Cl)c1)c1cc(Cl)ccc1NS(=O)(=O)C(F)(F)F [Compound 5] here?
A: 3.3 ppm

Q: For CC(=NNc1cc(Cl)cc(Cl)c1)c1cc(Cl)ccc1NS(=O)(=O)C(F)(F)F [Compound 6], which “H. contortus LD99” value [1] is on record?
A: 3.5 ppm

Q: Which “H. contortus LD99” value [1] does the source give for CC(=NNc1cc(Cl)ccc1Cl)c1cc(Cl)ccc1NS(=O)(=O)C(F)(F)F [Compound 7] here?
A: 0.94 ppm

Q: Which results are given for CC(=NNc1ccc(Br)cc1)c1cc(Cl)ccc1NS(=O)(=O)C(F)(F)F [Compound 8]?
A: H. contortus LD99 [1]: 7.5 ppm; C. felis Mortality (%) 8 h ([2]; 8 h, data from laboratory 2): 12^B %

Q: Which “H. contortus LD99” value [1] does the source give for COc1ccc(NN=C(C)c2cc(Cl)ccc2NS(=O)(=O)C(F)(F)F)cc1 [Compound 10] here?
A: >15 ppm

Q: For CC(=NNC(=O)c1ccccc1)c1cc(Cl)ccc1NS(=O)(=O)C(F)(F)F [Compound 11], which “H. contortus LD99” value [1] is on record?
A: >15 ppm

Q: For CCC(=NNc1cccc(Cl)c1Cl)c1cc(Cl)ccc1NS(=O)(=O)C(F)(F)F [Compound 13, N-[2-[1-(2,3-dichlorophenyl)hydrazono]propyl-4-chlorophenyl]-trifluoromethanesulfonamide], which “H. contortus LD99” value [1] is on record?
A: 3 ppm

Q: Which “H. contortus LD99” value [1] does the source give for CCC(=NNc1ccc(Cl)c(Cl)c1)c1cc(Cl)ccc1NS(=O)(=O)C(F)(F)F [Compound 14] here?
A: 3.8 ppm

Q: For CCC(=NNc1ccc(Br)cc1)c1cc(Cl)ccc1NS(=O)(=O)C(F)(F)F [Compound 15], which “H. contortus LD99” value [1] is on record?
A: 3.8 ppm

Q: Which “H. contortus LD99” value [1] does the source give for CCC(=NNc1cc(Cl)cc(Cl)c1)c1cc(Cl)ccc1NS(=O)(=O)C(F)(F)F [Compound 16] here?
A: 2.8 ppm

Q: Which “H. contortus LD99” value [1] does the source give for CCC(=NNc1ccc(Cl)cc1Cl)c1cc(Cl)ccc1NS(=O)(=O)C(F)(F)F [Compound 18] here?
A: 0.47 ppm

Q: What about the “C. felis Mortality (%) 8 h” value ([2]; 8 h, data from laboratory 2) of the same compound?
A: 5^B %

Q: With CCC(=NNc1cc(Cl)ccc1Cl)c1cc(Cl)ccc1NS(=O)(=O)C(F)(F)F [Compound 19] as the compound, how does the “H. contortus LD99” value [1] read?
A: 0.94 ppm

Q: For CC(=O)N(CCC#N)/N=C(\C)c1cc(Cl)ccc1NS(=O)(=O)C(F)(F)F [Compound 221], which “C. felis Mortality (%) 8 h” value [2] is on record?
A: 15%

Q: And the “C. felis Mortality (%) 24 h” value [2]?
A: 100%

Q: What about the “C. felis LC50” value [3] of the same compound?
A: 2.2 ppm

Q: What about the “R. sanguineus Mortality (%) 24 h” value [4] of the same compound?
A: 90%

Q: What about the “R. sanguineus LD50” value [5] of the same compound?
A: 0.53 μg/tick

Q: With C/C(=N\N(CCC#N)C(=O)c1ccccc1)c1cc(Cl)ccc1NS(=O)(=O)C(F)(F)F [Compound 222] as the compound, how does the “C. felis Mortality (%) 8 h” value [2] read?
A: 5%

Q: And the “C. felis Mortality (%) 24 h” value [2]?
A: 89%

Q: And the “C. felis LC50” value [3]?
A: 2.64 ppm

Q: And the “R. sanguineus Mortality (%) 24 h” value [4]?
A: 88%

Q: What about the “R. sanguineus LD50” value [5] of the same compound?
A: 0.56 μg/tick

Q: With CCCCCC(=O)N(CCC#N)/N=C(\C)c1cc(Cl)ccc1NS(=O)(=O)C(F)(F)F [Compound 224] as the compound, how does the “C. felis Mortality (%) 8 h” value [2] read?
A: 3%

Q: What about the “C. felis Mortality (%) 24 h” value [2] of the same compound?
A: 100%

Q: And the “C. felis LC50” value [3]?
A: 3.54 ppm

Q: What about the “R. sanguineus Mortality (%) 24 h” value [4] of the same compound?
A: 100%

Q: What about the “R. sanguineus LD50” value [5] of the same compound?
A: 0.71 μg/tick

Reference: patent US20070238700A1, “N-PHENYL-1,1,1-TRIFLUOROMETHANESULFONAMIDE HYDRAZONE DERIVATIVE COMPOUNDS AND THEIR USAGE IN CONTROLLING PARASITES” (priority 2006, published 2007)
